One experiment has as its target T1, human platelet PLA2 (Homo sapiens, UniProt P14555).
T1 construct: Semi-purified human platelet acid extract PLA2; from tissue; host or cells: human platelets (semi-purified acid extract)
T1 sequence (P14555 21-144): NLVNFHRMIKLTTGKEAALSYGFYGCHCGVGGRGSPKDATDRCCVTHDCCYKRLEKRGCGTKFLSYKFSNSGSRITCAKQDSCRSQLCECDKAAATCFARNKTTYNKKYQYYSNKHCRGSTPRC
Kind of experiment: in vitro isolated phospholipase A2 assay, human platelet PLA2 (Example 74). It is filed as biochemical. More on the design: dose or concentration left out as unconfirmed. Particulars: read-out: % Inhibition, HP (human platelet). Here is the method:
(§1) The compounds of the invention are tested in an in vitro isolated phospholipase A2 assay to determine the ability of the test compounds to inhibit the release of arachidonic acid from an arachidonic acid-containing substrate by the action of phospholipase A2 enzyme from human and non-human sources.
(§2) This assay is carried out as follows:
(§3) Into a 15 mL polypropylene tube are added the following:
(§4) ^6 Two human PLA2 enzymes are used:
a) Semi-purified human platelet acid extract PLA2 (in 10 mM
sodium acetate buffer, pH 4.5). Remove protein precipitate by
centrifugation at about 2200 rpm for 10 minutes.
(§5) Incubate the 100mL reaction mixture for 10 minutes at 37° C. in a shaking water bath. The reaction is terminated by the addition of 2 mL tetrahydrofuran, followed by vortexlag. NH2 columns (100 mg/mL--Analytichem International) are conditioned with 0.5 mL tetrahydrofuran followed by 0.5 mL tetrahydrofuran/water (2 mL:0.1 mL, v/v).
(§6) The sample is loaded onto the columns and slowly drawn through them. The hydrolyzed arachidonic acid retained in the columns is eluted therefrom with 1 mL tetrahydrofuran/glacial acetic acid (2%). The arachidonic acid is transferred to scintillation vials and quantitated by b-counting analysis. A "total counts" sample is prepared by pipetting […] ^3 H-arachidonate E. coli directly into a scintillation vial to which is added 1 mL tetrahydrofuran. 10 mL aquasol (scintillation cocktail) is added to all samples. [formula]

Experiment [1] addresses T2, human synovial fluid PLA2 (Homo sapiens, UniProt P14555).
T2 sequence (P14555 21-144): T1 sequence (P14555 21-144)
As to the kind of experiment: in vitro isolated phospholipase A2 assay, human synovial fluid PLA2 (Example 74). Particulars: read-out: % Inhibition, HSF (human synovial fluid). More on the design: inhibition / % Inhibition, HSF (human synovial fluid): dose or concentration left out as unconfirmed. It is filed as biochemical. On the procedure:
as §1, §2, §3, §4
b) Purified human synovial fluid.
as §5, §6

As usually defined, the inhibition is the change of the read-out against control, counted positive when it falls. In the case of `Cc1c(CC(=O)NOCc2ccccc2)c2cc(OCc3nc4ccccc4s3)ccc2n1Cc1ccc(Cl)cc1` [Example 48, 5-(2-Benzothiazolylmethoxy)-1-[(4-chlorophenyl)methyl]-N-(phenylmethoxy)-2-methyl-1H-indole-3-acetamide], the inhibition is 4% on human platelet PLA2 and 54% in experiment [1].

Regarding `Cc1c(CC(=O)O)c2cc(OCc3csc(-c4ccccc4)n3)ccc2n1Cc1ccc(C(C)(C)C)cc1` [Example 62, 5-[(2-Phenyl-4-thiazolyl)methoxy]-1-[[4-(1,1-dimethylethyl)phenyl]methyl]-2-methyl-1H-indole-3-acetic acid hemihydrate], the inhibition at human platelet PLA2 was 3%; in experiment [1], 30%.

As to `Cc1c(CC(=O)O)c2cc(OCc3csc(-c4ccccc4)n3)ccc2n1CCCc1ccccc1` [Example 63, 5-[(2-Phenyl-4-thiazolyl)methoxy]-1-(3-phenylpropyl)-2methyl-1H-indole-3-acetic acid], the inhibition is 2% at human platelet PLA2 and 34% in experiment [1].

Regarding `CCOC(=O)Cc1c(C)n(Cc2csc(-c3ccc(Cl)cc3)n2)c2ccc(OCc3csc(-c4ccccc4)n3)cc12` [Example 64, 5-[(2-Phenyl-4-thiazolyl)methoxy]-1-[[2-(4-chlorophenyl)-4-thiazolyl]methyl]-2-methyl-1H-indole-3-acetic acid ethyl ester], the inhibition is 1% at human platelet PLA2 and 4% in experiment [1].

Consider `CCOC(=O)Cc1c(C)n(Cc2ccc3ccccc3c2)c2ccc(OCc3csc(-c4ccccc4)n3)cc12` [Example 66, 5-[(2-Phenyl-4-thiazolyl)methoxy]-1-(2-naphthalenylmethyl)-2-methyl-1H-indole-3acetic acid ethyl ester], for which the inhibition on human platelet PLA2 was found to be 1%; in experiment [1], 6%.

As for `CCOC(=O)Cc1c(C)n(Cc2ccc(Cl)cc2)c2ccc(OCc3csc(-c4ccc(Cl)cc4)n3)cc12` [Example 68, 5-[[2-(4-Chlorophenyl)-4-thiazolyl]methoxy]-1-[(4-chlorophenyl)methyl]-2-methyl-1H-indole-3-acetic acid ethyl ester], the inhibition at human platelet PLA2 came to 2%; in experiment [1], 0%.

With `Cc1c(CC(=O)O)c2cc(OCc3csc(-c4ccc(Cl)cc4)n3)ccc2n1Cc1ccc(Cl)cc1` [Example 69, 5-[[2-(4-Chlorophenyl)-4-thiazolyl]methoxy]-1-[(4chlorophenyl)methyl]-2-methyl-1H-indole-3-acetic acid], the inhibition on human platelet PLA2 turned out to be 8%; in experiment [1] it was 54%.

On to `Cc1c(CC(=O)O)c2cc(OCc3coc(-c4ccccc4)n3)ccc2n1Cc1ccccc1` [Example 71, 5-[(2-Phenyl-4-oxazolyl)methoxy]-1-(phenylmethyl)-2-methyl-1H-indole-3-acetic acid hemihydrate.], for which the figures for the inhibition (at human platelet PLA2; in experiment [1]) were 44% and 91%, respectively.

Source of the values: patent US5420289A, “Substituted indole-, indene-, pyranoindole- and tetrahydrocarbazole-alkanoic acid derivatives as inhibitors of PLA2 and lipoxygenase” (American Home Products Corporation, priority 1993, dated 1995).
